# Test results reported in patent US10716798B2, “Compositions and methods for tranquilizing heart muscle” (THE REGENTS OF THE UNIVERSITY OF MICHIGAN, priority 2007, dated 2020).
# Experiments:
# [1] = system: atrial natriuretic peptide (ANP) in HL-1 cardiomyocytes; assay: Repression of atrial natriuretic peptide (ANP) in HL-1 cardiomyocytes (Western blot); type: cell-based; settings: HL-1 cardiomyocytes treated 48 hours, Western analysis, vs vehicle
# Protocol: Induction of VDR and repression of ANP by calcitriol (1,25-(OH)2vitamin-D3) and 1 alpha analogs (1α-Hydroxyitamin-D3 and 1α-hydroxysitocalciferol) is shown in the Western blot of FIG. 7. HL-1 cardiomyocyte cells were grown until confluent then split, and an equal amount (8×10^6 cells) of cells were plated for 24 hours and then treated for 48 hours either with vehicle (control) or with the indicated amount of Vitamin D compound. Cells were then harvested and subjected to Western analysis.
# [2] = system: Vitamin D receptor (VDR) in HL-1 cardiomyocytes; assay: Induction of VDR in HL-1 cardiomyocytes (Western blot); type: cell-based; settings: HL-1 cardiomyocytes treated 48 hours, Western analysis, vs vehicle
# Protocol: HL-1 cardiomyocyte cells were grown until confluent then split, and an equal amount (8×10^6 cells) of cells were plated for 24 hours and then treated for 48 hours either with vehicle (control) or with the indicated amount of Vitamin D compound. Cells were then harvested and subjected to Western analysis.
# SHHF rats [3] = assay: Resting heart rate in SHHF rats after Vitamin D treatment; type: in vivo, rat; settings: 13 weeks; for Heart rate vs control SHHF rats: SQ
# Excerpt: (§1) The effects of Vitamin D compounds including Vitamin D5 and D3 on the contraction of cardiomyocytes in vivo can be studied using normal and heart failure prone rats. To test the effect of Vitamin D compounds on heart failure rats, the present inventors selected the strain of rats called Spontaneously Hypertensive Heart Failure (SHHF) rats obtained from Charles River Laboratories, Wilmington Mass., USA. The SHHF rat was developed by backcrossing the SHROB rat to the SHR/N rat. They are characterized as naturally developing congestive heart failure, hypertension, nephropathy, obesity, insulin resistance, hyperinsulinemia and Type 2 diabetes spontaneously. […] Obesity is expressed as an autosomal recessive (cp/cp) trait, and hypertension is multifactorial (Yen at al., 1974). The CHF trait has been maintained through at least 15 generations. The mode of inheritance of the CHF is probably multifactorial, much like hypertension. These rats develop many of the clinical signs of CHF: generalized and subcutaneous edema, hydrothorax, ascites, dyspnea, cyanosis, enlarged hearts, left atrial thrombosis, and hyperemia of the lungs, liver, and kidneys. These rats are hypertensive, but blood pressure falls to normal levels with the onset of severe CHF. […] These morphologic changes probably reflect early compensatory LV hypertrophy at 6-10 months of age. This is followed by LV failure with elevated right heart pressures and RVFW hypertrophy, finally leading to biventricular CHF. This progression is similar to that of hypertensive heart disease in humans. Other similarities between the SHHF model and human hypertensive-diabetic cardiomyopathy (Factor et al., 1980) and another rat model of hypertension and diabetes (Factor et al., 1983) include increased heart weight and prominent interstitial fibrosis. Pathologic alterations in SHHF Rat hearts corresponding to human dilated cardiomyopathy include four-chamber dilation, intracardiac thrombi, myocyte hypertrophy, and interstitial fibrosis (Unveferth et al., 1986).
# Five treatment groups were established using SHHF rats. […]
# adult cardiomyocyte = assay: PKC activation and adult cardiomyocyte contractile function; type: cell-based
# Protocol: In addition to continued acceleration of relengthening in cardiomyocytes, upon administration of Vitamin D5 the PKC targets phospholamban and cardiac troponin I (cTnI) are specifically phosphorylated by PKC within approximately 60 minutes. Without being bound to theory, it is believed that phosphorylation of phospholamban can increase Ca^2+ sequestration into the sarcoplasmic reticulum while cardiac troponin C I phosphorylation decreases myofilament Ca^2+ sensitivity, two particularly significant events in increasing the relaxation of contractile function in the adult cardiomyocyte.
# The pharmaceutical compositions and methods described herein illustrate a mechanism to accelerate relaxation of cardiomyocyte contractile function via direct and rapid cellular action upon administration of 1α25-dihydroxyvitamin D5. These acute effects can be blocked by PKC inhibitors, illustratively bis-I. The phosphorylation of these key cardiac markers phospholamban and troponin C I develop within the same time period as the initial rapid decrease in peak shortening, and acceleration of contraction and relaxation rates.
# SHHF rats [4] = assay: Cardiac hemodynamic parameters by echocardiography in SHHF rats; type: in vivo, rat; settings: for E/A transmitral flow ratio, change vs control / Cardiac index vs control / Stroke volume vs control: 5 days per week for 13 weeks
# Protocol: (§2) Five treatment groups were established using SHHF rats. In each cohort (5-6 rats), the diets were substantially identical, rats were each fed a high salt diet (8% NaCl) (Harlan Teklad diet TD92012, Madison Wis. USA) and were accommodated equally. All treatment groups received a single once daily administration subcutaneously (SQ) of a Vitamin D compound at varying concentrations five times per week. The Vitamin D compound was dissolved in 1,2 propandiol containing 0.7% ethanol. Control SHHF rats were dosed with vehicle control alone. The animals were dosed for a period of 13 weeks before they were examined by echocardiography explained in more detail below. The first group comprised a control group in which they received a vehicle alone treatment lacking any Vitamin D. The second group consisted of SHHF rats injected with 18 ng 1,25 dihydroxy Vitamin D3 per dose, one dose per day treated animals. The third group consisted of SHHF rats injected with 33 ng of 1α-hydroxysitocalciferol per dose, one dose per day treated animals. The fourth group consisted of SHHF rats injected with 100 ng of 1α-hydroxysitocalciferol per dose, one dose per day treated animals. The fifth group consisted of SHHF rats injected with 300 ng of 1α-hydroxysitocalciferol per dose, one dose per day treated animals.
# After 13 weeks of treatment with the Vitamin D compounds or vehicle control alone, the SHHF rat's cardiac hemodynamic condition was measured, recorded and analyzed for the presence or absence of cardiac tranquilization and reversal of heart failure symptoms.
# Non-invasive recording electrocardiograms and echocardiography in conscious rats: Two-dimensional and M-mode echocardiographic images will be recorded using a GE S10 MHz phased-array transducer, connected to a General Electric, Vivid 7 Ultrasound System. The System used for ECG was the AnonyMOUSE ECG Screening System (Mouse Specifics, Boston, Mass. USA). The rats are placed on the instrument's platform and acclimated for 10 min prior to ECG recordings. Animals are anesthetized using an isoflurane anesthetic machine, first by introducing 4% isoflurane and 1 liter of oxygen to an induction chamber. When rats are in lateral recumbency and the breathing is slowed, they are moved to the table where they are placed on a warming pad to maintain body temperature. Their nose is placed in a cone which supplies 1-2% isoflurane and 1 liter of oxygen to maintain a surgical plane of anesthesia. The hair is removed from the upper abdominal and thoracic area with depilatory cream. ECG is monitored via non-invasive resting ECG electrodes (trimmed to fit) placed on the paw pads. The echocardiogram takes approximately 10 minutes.
# Transthoracic echocardiography is performed in the supine or left lateral position. Data are analyzed by proprietal software and all rats ECG intervals analyzed by Student's two-tail t-test. […]
# SHHF rats [5] = assay: Systolic blood pressure by tail-cuff in SHHF rats; type: in vivo, rat; settings: 100 ng/100 g bw, SQ, 13 weeks
# Excerpt: as §1, with “This is followed by LV failure with elevated right heart pressures and RVFW hypertrophy, finally leading to biventricular CHF. This progression is similar to that of hypertensive heart disease in humans. Other similarities between the SHHF model and human hypertensive-diabetic cardiomyopathy (Factor et al., 1980) and another rat model of hypertension and diabetes (Factor et al., 1983) include increased heart weight and prominent interstitial fibrosis. Pathologic alterations in SHHF Rat hearts corresponding to human dilated cardiomyopathy include four-chamber dilation, intracardiac thrombi, myocyte hypertrophy, and interstitial fibrosis (Unveferth et al., 1986).” left out
# [6] = Total body weight of SHHF rats; type: in vivo, rat; settings: 100 ng/100 g body weight, SQ, 13 weeks
# Protocol: as §2
# Blood pressure measurement by tail-cuff artery occlusion.
# [7] = 300 ng/day, listed as Vitamin D5
Compound,Repression of ANP expression [1],Induction of VDR [2],"Heart rate vs control SHHF rats or Wistar rats (SHHF rats [3]; 18 ng 1,25(OH)2D3, SQ)","Time to phosphorylation of phospholamban and cardiac troponin I (cTnI) by PKC (adult cardiomyocyte; cardiomyocytes, upon administration of Vitamin D5)",Relaxation in adult cardiomyocyte contractile function (adult cardiomyocyte; via PKC activation),"E/A transmitral flow ratio, change vs control (SHHF rats [4]; 100 ng/day)","E/A transmitral flow ratio, change vs control (SHHF rats [4]; 100 ng/day, listed as Vitamin D5)","E/A ratio (SHHF rats [4]; 300 ng/day, 13 week treatment)",Cardiac index vs control (SHHF rats [4]; 300 ng/day),"E/A transmitral flow ratio, change vs control (SHHF rats [4]; 300 ng/day)",Stroke volume vs control (SHHF rats [4]; 300 ng/day),Cardiac index vs control (SHHF rats [4]; [7]),Stroke volume vs control (SHHF rats [4]; [7]),"Stroke volume, untreated SHHF rats in comparison to treated (SHHF rats [4]; all doses of Vitamin D5 (33, 100, 300 ng/day), 13 weeks)",Systolic blood pressure vs control SHHF rats (SHHF rats [5]),Heart rate vs control SHHF rats (SHHF rats [3]; 33 ng/100 g body weight),Heart rate vs control SHHF rats (SHHF rats [3]; 300 ng/day),Total body weight at 30 weeks age vs control SHHF rats [6]
"C=C1/C(=C\C=C2/CCC[C@]3(C)[C@@H]([C@H](C)CCCC(C)C)CC[C@@H]23)C[C@@H](O)C[C@@H]1O [1α-Hydroxyitamin-D3, reference compound]",repression,considerable induction,,,,,,,,,,,,,,,,
"C=C1/C(=C\C=C2/CCC[C@]3(C)[C@@H]([C@H](C)CCCC(C)(C)O)CC[C@@H]23)C[C@@H](O)C[C@@H]1O [1,25(OH)2D3, 1,25-dihydroxyvitamin D3, reference compound]",repression,,higher heart rates albeit not statistically significant,,,,,,,,,,,,,,,
"C=C1/C(=C\C=C2/CCC[C@]3(C)[C@@H]([C@H](C)CC[C@@H](CC)C(C)C)CC[C@@H]23)C[C@@H](O)C[C@@H]1O [1α-hydroxysitocalciferol, 1-α-hydroxy-2,4-ethyl-9,10-seco-5,7,10(19)-cholestatrien-3 β-ol]",remarkable repression,considerable induction,,≤ 60 min,accelerated relaxation,statistically significant reduction,significant reduction,about 0.99,statistically significant reduction,statistically significant reduction,statistically significant reduction,significant reduction,Most pronounced,statistically significant,significant decreased BP,decrease,increase in heart rate,significant increased body weight
